# Assays:
# Assay in all cases: relative viability (nuclei count vs DMSO), 5 days (fraction); higher = more cells survive
# XMD14-99 + Palbociclib = compound: CN1CCN(CC1)C2=CC(=C(C=C2)NC3=NC(=C(S3)C(=O)C4=C(C=CC=C4Cl)Cl)N)OC [XMD14-99] + CC(=O)c1c(C)c2cnc(Nc3ccc(N4CCNCC4)cn3)nc2n(C2CCCC2)c1=O [Palbociclib] (partner 0.5 µM)
# Method in brief: (§1)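 Nuclei were stained with Hoechst during a one-step fixation (final 0.05% Triton X-100, 1% formaldehyde, 1 ug/ml Hoechst) carried out 5 days after dosing, then counted on 4× images. The cells, lung cancer lines in 1536-well plates, had been dosed by pin tool the day after seeding with one drug alone or a fixed anchor-drug dose plus five library-drug doses (not always all listed) in √10 steps. Relative viability is the nuclei count in treated wells divided by that in vehicle wells, and each value is the median of duplicate plates.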
# XMD14-99 + Linsitinib = compound: CN1CCN(CC1)C2=CC(=C(C=C2)NC3=NC(=C(S3)C(=O)C4=C(C=CC=C4Cl)Cl)N)OC [XMD14-99] + C[C@]1(O)C[C@@H](c2nc(-c3ccc4ccc(-c5ccccc5)nc4c3)c3c(N)nccn32)C1 [Linsitinib] (partner 1 µM)
# Method in brief: as §1
# XMD14-99 + Trametinib = compound: CN1CCN(CC1)C2=CC(=C(C=C2)NC3=NC(=C(S3)C(=O)C4=C(C=CC=C4Cl)Cl)N)OC [XMD14-99] + CC(=O)Nc1cccc(-n2c(=O)n(C3CC3)c(=O)c3c(Nc4ccc(I)cc4F)n(C)c(=O)c(C)c32)c1 [Trametinib] (partner 0.02 µM)
# Method in brief: as §1
# XMD14-99 + Navitoclax = compound: CN1CCN(CC1)C2=CC(=C(C=C2)NC3=NC(=C(S3)C(=O)C4=C(C=CC=C4Cl)Cl)N)OC [XMD14-99] + CC1(C)CCC(c2ccc(Cl)cc2)=C(CN2CCN(c3ccc(C(=O)NS(=O)(=O)c4ccc(N[C@H](CCN5CCOCC5)CSc5ccccc5)c(S(=O)(=O)C(F)(F)F)c4)cc3)CC2)C1 [Navitoclax] (partner 0.5 µM)
# Method in brief: as §1
# XMD14-99 + Dasatinib = compound: CN1CCN(CC1)C2=CC(=C(C=C2)NC3=NC(=C(S3)C(=O)C4=C(C=CC=C4Cl)Cl)N)OC [XMD14-99] + Cc1nc(Nc2ncc(C(=O)Nc3c(C)cccc3Cl)s2)cc(N2CCN(CCO)CC2)n1 [Dasatinib] (partner 0.075 µM)
# Method in brief: as §1
Cell Line,relative viability (XMD14-99 + Palbociclib; first compound 0.08 µM),relative viability (XMD14-99 + Palbociclib; first compound 0.8 µM),relative viability (XMD14-99 + Palbociclib; first compound 2.53 µM),relative viability (XMD14-99 + Palbociclib; first compound 8 µM),relative viability (XMD14-99 + Linsitinib; first compound 0.08 µM),relative viability (XMD14-99 + Linsitinib; first compound 0.8 µM),relative viability (XMD14-99 + Linsitinib; first compound 2.53 µM),relative viability (XMD14-99 + Linsitinib; first compound 8 µM),relative viability (XMD14-99 + Trametinib; first compound 0.08 µM),relative viability (XMD14-99 + Trametinib; first compound 0.8 µM),relative viability (XMD14-99 + Trametinib; first compound 2.53 µM),relative viability (XMD14-99 + Trametinib; first compound 8 µM),relative viability (XMD14-99 + Navitoclax; first compound 0.08 µM),relative viability (XMD14-99 + Navitoclax; first compound 0.8 µM),relative viability (XMD14-99 + Navitoclax; first compound 2.53 µM),relative viability (XMD14-99 + Navitoclax; first compound 8 µM),relative viability (XMD14-99 + Dasatinib; first compound 0.08 µM),relative viability (XMD14-99 + Dasatinib; first compound 0.8 µM),relative viability (XMD14-99 + Dasatinib; first compound 2.53 µM),relative viability (XMD14-99 + Dasatinib; first compound 8 µM)
NCI-H2009,0.358,0.319,0.26,0.236,1.2,1.15,1.19,0.91,0.258,0.317,0.254,0.185,1.15,1.1,1.03,0.999,0.263,0.294,0.261,0.164
NCI-H2023,0.342,0.409,0.374,0.264,0.662,0.551,0.63,0.514,0.495,0.562,0.754,0.442,0.985,0.959,0.953,0.849,0.536,0.607,0.739,0.404
NCI-H2085,0.453,0.447,0.462,0.41,0.872,0.86,0.784,0.667,0.49,0.621,0.498,0.485,1.11,1.1,1.1,0.823,0.267,0.261,0.273,0.241
NCI-H2087,0.198,0.279,0.236,0.246,0.894,0.695,0.679,0.646,0.174,0.176,0.162,0.122,0.964,0.897,0.632,0.463,0.739,0.714,0.55,0.305
NCI-H2126,0.326,0.337,0.37,0.362,0.739,0.705,0.668,0.628,0.545,0.569,0.621,0.56,0.844,0.797,0.879,0.793,0.617,0.632,0.513,0.402
NCI-H2228,0.749,0.56,0.774,0.278,0.702,0.524,0.476,0.221,0.612,0.534,0.431,0.209,1.05,0.933,0.918,0.364,0.376,0.451,0.405,0.148
NCI-H2347,0.439,0.43,0.4,0.416,1.02,1.02,0.873,0.633,0.278,0.288,0.304,0.269,0.736,0.825,0.699,0.488,0.284,0.308,0.352,0.204
NCI-H2405,0.512,0.578,0.557,0.503,0.913,0.992,0.9,0.566,0.641,0.751,0.626,0.575,0.825,1.05,0.877,0.436,0.21,0.204,0.209,0.173
NCI-H3122,0.197,0.167,0.213,0.147,1,1.02,0.88,0.678,0.261,0.22,0.269,0.22,0.989,0.945,0.902,0.724,0.81,0.745,0.754,0.503
PC-3 [JPC-3],0.574,0.501,0.59,0.538,1.04,0.878,0.828,0.844,0.749,0.59,0.645,0.577,0.794,0.756,0.768,0.667,0.915,0.972,0.99,0.907
PC-14,0.567,0.527,0.5,0.24,1.08,0.932,0.958,0.684,0.668,0.726,0.59,0.217,0.983,0.902,0.943,0.726,0.254,0.226,0.224,0.11
RERF-LC-KJ,1.01,1.04,0.952,0.9,0.878,0.888,0.873,0.743,0.808,0.846,0.76,0.682,1.01,0.829,0.926,0.607,0.883,0.869,0.764,0.608
SK-LU-1,0.418,0.42,0.356,0.266,0.872,1.2,1.07,0.671,0.538,0.502,0.473,0.309,0.796,1.02,0.886,0.405,0.182,0.204,0.181,0.163
SK-MES-1,0.345,0.343,0.372,0.223,1.08,1.04,1.03,0.754,0.524,0.564,0.622,0.392,1.26,1.18,1.05,0.821,0.381,0.398,0.336,0.225
SW 1573,0.342,0.44,0.421,0.36,0.723,0.785,0.782,0.885,0.547,0.58,0.74,0.47,0.961,1.15,1.05,0.765,0.401,0.42,0.52,0.325
UMC-11,0.34,0.383,0.346,0.292,1.03,1.03,1.03,0.858,0.744,0.637,0.747,0.645,0.308,0.33,0.343,0.317,0.441,0.478,0.438,0.344
